This passage reports IC50 and melting point results from patent US8383647B2, “Quinoline derivative” (Takeda Pharmaceutical Company Limited, priority 2009, dated 2013).

One data set deals with human SLC-1 (Homo sapiens, UniProt Q99705). Kind of data set: MCH receptor antagonistic activity (inhibitory activity, Experimental Example 1). It is filed as biochemical.
A further data set has as its target rat SLC-1 (Rattus norvegicus, UniProt P97639). The experiment in a line: MCH receptor antagonistic activity (inhibitory activity, Experimental Example 1). In kind it is biochemical.

The IC50 is the midpoint of a concentration-inhibition curve. Usually melting point stands for the temperature, or range, at which the solid turns liquid.

The structures appear in SMILES notation.

rat SLC-1, sequence (P97639 whole entry): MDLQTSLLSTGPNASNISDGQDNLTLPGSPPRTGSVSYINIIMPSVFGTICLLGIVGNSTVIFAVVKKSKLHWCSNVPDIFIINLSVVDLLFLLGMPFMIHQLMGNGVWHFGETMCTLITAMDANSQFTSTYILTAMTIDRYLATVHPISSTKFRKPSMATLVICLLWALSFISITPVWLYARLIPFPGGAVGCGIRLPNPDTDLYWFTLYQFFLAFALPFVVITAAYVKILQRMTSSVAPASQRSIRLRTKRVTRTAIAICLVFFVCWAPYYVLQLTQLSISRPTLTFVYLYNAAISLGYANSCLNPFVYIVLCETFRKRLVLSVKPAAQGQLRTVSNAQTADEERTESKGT
human SLC-1, sequence (Q99705 whole entry): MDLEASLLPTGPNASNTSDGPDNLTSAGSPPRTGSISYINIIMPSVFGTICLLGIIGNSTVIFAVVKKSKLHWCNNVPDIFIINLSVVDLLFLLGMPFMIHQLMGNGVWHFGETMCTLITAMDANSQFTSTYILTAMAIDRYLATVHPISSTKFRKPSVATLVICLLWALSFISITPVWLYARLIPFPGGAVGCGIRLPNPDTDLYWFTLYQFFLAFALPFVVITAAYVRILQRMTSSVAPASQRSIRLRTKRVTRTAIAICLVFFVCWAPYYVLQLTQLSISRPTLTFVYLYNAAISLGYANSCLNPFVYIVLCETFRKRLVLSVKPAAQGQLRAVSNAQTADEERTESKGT

With `CCCNCc1cnc2c(C)c(NC(=O)c3ccc(OC[C@@H]4CCCO4)cc3)ccc2c1` [Example 45, N-{8-methyl-3-[(propylamino)methyl]quinolin-7-yl}-4-[(2S)-tetrahydrofuran-2-ylmethoxy]benzamide], the melting point fell in the range of 121 to 122 °C. The same compound showed a half-maximal inhibitory concentration (IC50) against human SLC-1 of 3.1 nM. Further, at rat SLC-1, the IC50 amounted to 5.8 nM.

In the case of `Cc1c(NC(=O)c2ccc(OC[C@@H]3CCCO3)cc2)ccc2cc(CN[C@@H]3CCCC[C@H]3O)cnc12` [Example 46, N-[3-({[(1R,2R)-2-hydroxycyclohexyl]amino}methyl)-8-methylquinolin-7-yl]-4-[(2S)-tetrahydrofuran-2-ylmethoxy]benzamide], the melting point lay in the range of 142 to 143 °C. The compound also returned a half-inhibitory concentration (IC50) on human SLC-1 of 4.5 nM. Besides, the 50% inhibitory concentration (IC50) on rat SLC-1 is 6.5 nM.

`Cc1c(NC(=O)c2ccc(OC[C@@H]3CCCO3)cc2)ccc2cc(CN[C@H]3CCCC[C@@H]3O)cnc12` [Example 47, N-[3-({[(1S,2S)-2-hydroxycyclohexyl]amino}methyl)-8-methylquinolin-7-yl]-4-[(2S)-tetrahydrofuran-2-ylmethoxy]benzamide]: the melting point was 157 to 158 °C. For the same compound, at human SLC-1, the IC50 is 6.8 nM. The compound also returned an IC50 at rat SLC-1 of 7.9 nM.

In turn, `Cc1c(NC(=O)c2ccc(OC[C@@H]3CCCO3)cc2)ccc2cc(CN[C@H]3CC[C@H](O)CC3)cnc12` [Example 48, N-(3-{[(trans-4-hydroxycyclohexyl)amino]methyl}-8-methylquinolin-7-yl)-4-[(2S)-tetrahydrofuran-2-ylmethoxy]benzamide] showed a melting point of 183 to 184 °C. Besides, at human SLC-1, the half-maximal inhibitory concentration (IC50) worked out at 9.1 nM. On rat SLC-1, the half-maximal inhibitory concentration (IC50) amounted to 8.3 nM.

The compound `Cc1c(NC(=O)c2ccc(OC[C@@H]3CCCO3)cc2)ccc2cc(CNCCOC(C)C)cnc12` [Example 49, N-[8-methyl-3-({[2-(1-methylethoxy)ethyl]amino}methyl)quinolin-7-yl]-4-[(2S)-tetrahydrofuran-2-ylmethoxy]benzamide] yielded a melting point of 111 to 113 °C. Moreover, at human SLC-1, the IC50 came out at 4.8 nM. At rat SLC-1, this compound had an IC50 of 7.2 nM.

Consider `Cc1c(NC(=O)c2ccc(OC[C@@H]3CCCO3)cc2)ccc2cc(CN[C@H]3CC[C@@](C)(O)CC3)cnc12` [Example 52, N-(3-{[(cis-4-hydroxy-4-methylcyclohexyl)amino]methyl}-8-methylquinolin-7-yl)-4-[(2S)-tetrahydrofuran-2-ylmethoxy]benzamide], for which the melting point lay in the range of 159 to 161 °C. Moreover, the IC50 at human SLC-1 amounted to 6.5 nM. At rat SLC-1, this compound came in with an IC50 of 9.5 nM.

For the compound `CCC(CC)NCc1cnc2c(C)c(NC(=O)c3ccc(OC[C@@H]4CCCO4)cc3)ccc2c1` [Example 54, N-(3-{[(1-ethylpropyl)amino]methyl}-8-methylquinolin-7-yl)-4-[(2S)-tetrahydrofuran-2-ylmethoxy]benzamide], the melting point fell in the range of 113 to 115 °C. The compound further displayed a half-maximal inhibitory concentration (IC50) against human SLC-1 of 5.5 nM. The IC50 against rat SLC-1 was 6.1 nM.

`CC[C@@H](C)NCc1cnc2c(C)c(NC(=O)c3ccc(OC[C@@H]4CCCO4)cc3)ccc2c1` [Example 55, N-[8-methyl-3-({[(1R)-1-methylpropyl]amino}methyl)quinolin-7-yl]-4-[(2S)-tetrahydrofuran-2-ylmethoxy]benzamide] yielded a melting point of 118 to 119 °C. Moreover, the IC50 against human SLC-1 stood at 6.8 nM. Besides, it took 8.8 nM to reach half-maximal inhibition against rat SLC-1 (IC50).

The compound `CC[C@H](C)NCc1cnc2c(C)c(NC(=O)c3ccc(OC[C@@H]4CCCO4)cc3)ccc2c1` [Example 56, N-[8-methyl-3-({[(1S)-1-methylpropyl]amino}methyl)quinolin-7-yl]-4-[(2S)-tetrahydrofuran-2-ylmethoxy]benzamide] displayed a melting point of 122 to 123 °C. Also, the IC50 against human SLC-1 was 6.4 nM. The concentration for half-maximal inhibition (IC50) on rat SLC-1 came to 9.1 nM.

`Cc1c(NC(=O)c2ccc(OC[C@@H]3CCCO3)cc2)ccc2cc(CNC3CCC3)cnc12` [Example 57, N-{3-[(cyclobutylamino)methyl]-8-methylquinolin-7-yl}-4-[(2S)-tetrahydrofuran-2-ylmethoxy]benzamide] displayed a melting point of 142 to 144 °C. Further, the half-inhibitory concentration (IC50) on human SLC-1 was determined as 9.8 nM. On rat SLC-1, this compound displayed a half-inhibitory concentration (IC50) of 17 nM.

For the compound `Cc1c(NC(=O)c2ccc(OC[C@@H]3CCCO3)cc2)ccc2cc(CN[C@H](C)C(C)(C)C)cnc12` [Example 58, N-[8-methyl-3-({[(1R)-1,2,2-trimethylpropyl]amino}methyl)quinolin-7-yl]-4-[(2S)-tetrahydrofuran-2-ylmethoxy]benzamide], the melting point lay in the range of 140 to 141 °C. On human SLC-1, this compound displayed an IC50 of 6.8 nM. At rat SLC-1, half-maximal inhibition (IC50) was put at 11 nM.

`Cc1c(NC(=O)c2ccc(OCC3CCOC3)cc2)ccc2cc(CNCC(C)(C)C)cnc12` (stereo not drawn) [Example 62, N-(3-{[(2,2-dimethylpropyl)amino]methyl}-8-methylquinolin-7-yl)-4-(tetrahydrofuran-3-ylmethoxy)benzamide] came in with a melting point of 129 °C. This compound showed a concentration for half-maximal inhibition (IC50) against human SLC-1 of 2.2 nM. Besides, the half-maximal inhibitory concentration (IC50) against rat SLC-1 turned out to be 2.7 nM.

Turning to `Cc1c(NC(=O)c2ccc(OCC3CCOC3)cc2)ccc2cc(CNCC3CCOCC3)cnc12` (stereo not drawn) [Example 63, N-(8-methyl-3-{[(tetrahydro-2H-pyran-4-ylmethyl)amino]methyl}quinolin-7-yl)-4-(tetrahydrofuran-3-ylmethoxy)benzamide], the melting point lay in the range of 122 to 123 °C. Moreover, the IC50 at human SLC-1 turned out to be 3.7 nM. At rat SLC-1, the half-inhibitory concentration (IC50) came to 4.5 nM.

For the compound `Cc1c(NC(=O)c2ccc(OC[C@@H]3CCCO3)cc2F)ccc2cc(CNCC(C)(C)O)cnc12` [Example 67, 2-fluoro-N-(3-{[(2-hydroxy-2-methylpropyl)amino]methyl}-8-methylquinolin-7-yl)-4-[(2S)-tetrahydrofuran-2-ylmethoxy]benzamide], the melting point fell in the range of 167 to 168 °C. Further, inhibition against human SLC-1 was half-maximal at 7.8 nM (IC50). The compound further had an IC50 at rat SLC-1 of 11 nM.

Compound `Cc1c(NC(=O)c2ccc(OC[C@@H]3CCCO3)cc2F)ccc2cc(CNCC(C)(C)C)cnc12` [Example 68, N-(3-{[(2,2-dimethylpropyl)amino]methyl}-8-methylquinolin-7-yl)-2-fluoro-4-[(2S)-tetrahydrofuran-2-ylmethoxy]benzamide] returned a melting point of 134 to 135 °C. In addition, at human SLC-1, half-maximal inhibition (IC50) required 3.1 nM. On rat SLC-1, this compound gave a half-inhibitory concentration (IC50) of 2.8 nM.

The compound `Cc1c(NC(=O)c2ccc(OC[C@@H]3CCCO3)cc2F)ccc2cc(CN[C@H]3CC[C@](C)(O)CC3)cnc12` [Example 69, 2-fluoro-N-(3-{[(trans-4-hydroxy-4-methylcyclohexyl)amino]methyl}-8-methylquinolin-7-yl)-4-[(2S)-tetrahydrofuran-2-ylmethoxy]benzamide] returned a melting point of 171 to 172 °C. Moreover, half-maximal inhibition against human SLC-1 (IC50) was put at 6.1 nM. At rat SLC-1, this compound returned a concentration for half-maximal inhibition (IC50) of 7.1 nM.

In the case of `Cc1c(NC(=O)c2ccc(OC[C@@H]3CCCO3)cc2F)ccc2cc(CNCC(C)C)cnc12` [Example 70, 2-fluoro-N-(8-methyl-3-{[(2-methylpropyl)amino]methyl}quinolin-7-yl)-4-[(2S)-tetrahydrofuran-2-ylmethoxy]benzamide], the melting point lay in the range of 133 to 134 °C. This compound returned a concentration for half-maximal inhibition (IC50) against human SLC-1 of 2.7 nM. Half-maximal inhibition on rat SLC-1 (IC50) was put at 3.2 nM.

As to `CCCNCc1cnc2c(C)c(NC(=O)c3ccc(OC[C@@H]4CCCO4)cc3F)ccc2c1` [Example 71, 2-fluoro-N-{8-methyl-3-[(propylamino)methyl]quinolin-7-yl}-4-[(2S)-tetrahydrofuran-2-ylmethoxy]benzamide], the melting point lay within 120 to 121 °C. This compound had an IC50 against human SLC-1 of 5 nM. This compound also returned a half-inhibitory concentration (IC50) at rat SLC-1 of 8 nM.

As to `Cc1c(NC(=O)c2ccc(OC[C@@H]3CCCO3)cc2)ccc2cc(CN3CCC(C)(O)CC3)cnc12` [Example 72, N-{3-[(4-hydroxy-4-methylpiperidin-1-yl)methyl]-8-methylquinolin-7-yl}-4-[(2S)-tetrahydrofuran-2-ylmethoxy]benzamide], the melting point is 169 to 174 °C. Also, the IC50 on human SLC-1 is 4.5 nM. The compound also yielded a 50% inhibitory concentration (IC50) against rat SLC-1 of 4.3 nM.
